Measured values taken from PMC6364417, “Kinase inhibitor library screening identifies synergistic drug combinations effective in sensitive and resistant melanoma cells” (Journal of Experimental & Clinical Cancer Research : CR, 2019).

How the values were obtained:
Assay in all cases: Kinase inhibitor library screening, PrestoBlue cell viability, 1 or 10 μM, 72 h
501Mel cells (parental) = details: for cell viability (kinase inhibitor library screening) / Cell viability in kinase inhibitor library screening, 501Mel Parental, 1μΜ / Cell viability in kinase inhibitor library screening, 501Mel Parental, 10μΜ: 501Mel Parental, in %
Method in brief: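 Single-point screen at two doses over three days. Parental and BRAF-inhibitor-resistant sublines (XP: Vemurafenib; GP: Dabrafenib) were assessed by PrestoBlue viability, reported relative to untreated cells.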

[1] = system: 501Mel-GP cells (Dabrafenib-resistant); details: for cell viability (kinase inhibitor library screening) / Cell viability in kinase inhibitor library screening, 501Mel GP, 1μΜ / Cell viability in kinase inhibitor library screening, 501Mel GP, 10μΜ: 501Mel GP, in %
[2] = system: 501Mel-XP cells (Vemurafenib-resistant); details: for cell viability (kinase inhibitor library screening) / Cell viability in kinase inhibitor library screening, 501Mel XP, 1μΜ / Cell viability in kinase inhibitor library screening, 501Mel XP, 10μΜ: 501Mel XP, in %
A375 cells (parental) = details: for cell viability (kinase inhibitor library screening) / Cell viability in kinase inhibitor library screening, A375 Parental, 10μΜ / Cell viability in kinase inhibitor library screening, A375 Parental, 1μΜ: A375 Parental; for cell viability (kinase inhibitor library screening): in %; for Cell viability in kinase inhibitor library screening, A375 Parental, 10μΜ / Cell viability in kinase inhibitor library screening, A375 Parental, 1μΜ: 72 h
[3] = system: A375-GP cells (Dabrafenib-resistant); details: for cell viability (kinase inhibitor library screening) / Cell viability in kinase inhibitor library screening, A375 GP, 1μΜ / Cell viability in kinase inhibitor library screening, A375 GP, 10μΜ: A375 GP; for cell viability (kinase inhibitor library screening): in %; for Cell viability in kinase inhibitor library screening, A375 GP, 1μΜ / Cell viability in kinase inhibitor library screening, A375 GP, 10μΜ: 72 h
[4] = system: A375-XP cells (Vemurafenib-resistant); details: for cell viability (kinase inhibitor library screening) / Cell viability in kinase inhibitor library screening, A375 XP, 1μΜ / Cell viability in kinase inhibitor library screening, A375 XP, 10μΜ: A375 XP; for cell viability (kinase inhibitor library screening): in %; for Cell viability in kinase inhibitor library screening, A375 XP, 1μΜ / Cell viability in kinase inhibitor library screening, A375 XP, 10μΜ: 72 h
IGR37 cells (parental) = details: for cell viability (kinase inhibitor library screening) / Cell viability in kinase inhibitor library screening, IGR37 Parental, 1μΜ / Cell viability in kinase inhibitor library screening, IGR37 Parental, 10μΜ: IGR37 Parental, in %; for Cell viability in kinase inhibitor library screening, IGR37 Parental, 1μΜ / Cell viability in kinase inhibitor library screening, IGR37 Parental, 10μΜ: 72 h
[5] = system: IGR37-GP cells (Dabrafenib-resistant); details: for cell viability (kinase inhibitor library screening) / Cell viability in kinase inhibitor library screening, IGR37 GP, 10μΜ / Cell viability in kinase inhibitor library screening, IGR37 GP, 1μΜ: IGR37 GP; for cell viability (kinase inhibitor library screening) / Cell viability in kinase inhibitor library screening, IGR37 GP, 1μΜ: in %; for Cell viability in kinase inhibitor library screening, IGR37 GP, 10μΜ / Cell viability in kinase inhibitor library screening, IGR37 GP, 1μΜ: 72 h
[6] = system: IGR37-XP cells (Vemurafenib-resistant); details: for cell viability (kinase inhibitor library screening) / Cell viability in kinase inhibitor library screening, IGR37 XP, 10μΜ / Cell viability in kinase inhibitor library screening, IGR37 XP, 1μΜ: IGR37 XP; for cell viability (kinase inhibitor library screening) / Cell viability in kinase inhibitor library screening, IGR37 XP, 1μΜ: in %; for Cell viability in kinase inhibitor library screening, IGR37 XP, 10μΜ / Cell viability in kinase inhibitor library screening, IGR37 XP, 1μΜ: 72 h

SMILES | cell viability (kinase inhibitor library screening) (501Mel cells (parental); 1μΜ) | cell viability (kinase inhibitor library screening) (501Mel cells (parental); 10μΜ) | cell viability (kinase inhibitor library screening) ([1]; 1μΜ) | cell viability (kinase inhibitor library screening) ([1]; 10μΜ) | cell viability (kinase inhibitor library screening) ([2]; 10μΜ) | cell viability (kinase inhibitor library screening) (A375 cells (parental); 1μΜ) | cell viability (kinase inhibitor library screening) (A375 cells (parental); 10μΜ) | cell viability (kinase inhibitor library screening) ([3]; 1μΜ) | cell viability (kinase inhibitor library screening) ([3]; 10μΜ) | cell viability (kinase inhibitor library screening) ([4]; 10μΜ) | cell viability (kinase inhibitor library screening) (IGR37 cells (parental); 1μΜ) | cell viability (kinase inhibitor library screening) (IGR37 cells (parental); 10μΜ) | cell viability (kinase inhibitor library screening) ([5]; 1μΜ) | cell viability (kinase inhibitor library screening) ([5]; 10μΜ) | cell viability (kinase inhibitor library screening) ([6]; 1μΜ) | cell viability (kinase inhibitor library screening) ([6]; 10μΜ) | Cell viability in kinase inhibitor library screening, 501Mel Parental, 1μΜ (501Mel cells (parental); 1μΜ, 72 h) | Cell viability in kinase inhibitor library screening, 501Mel Parental, 10μΜ (501Mel cells (parental); 10μΜ, 72 h) | Cell viability in kinase inhibitor library screening, 501Mel GP, 1μΜ ([1]; 1μΜ, 72 h) | Cell viability in kinase inhibitor library screening, 501Mel GP, 10μΜ ([1]; 10μΜ, 72 h) | other results
CNC(=O)c1cc(COc2nnc(Nc3ccc(Cl)cc3)c3ccoc23)ccn1 [Telatinib (BAY 57-9352)] | 96.8 | 90.0 | 99.0 | 76.1 | 68.9 | 99.4 | 95.9 | 98.3 | 92.0 | 95.7 | 99.2 | 97.3 | 94.5 | 88.0 | 98.1 | 70.8 | – | – | – | – | cell viability (kinase inhibitor library screening) ([4]; 1μΜ): 96.6
CO[C@H]1C[C@@H]2CC[C@@H](C)[C@@](O)(O2)C(=O)C(=O)N2CCCC[C@H]2C(=O)O[C@H]([C@H](C)C[C@@H]2CC[C@@H](OC(=O)C(C)(CO)CO)[C@H](OC)C2)CC(=O)[C@H](C)/C=C(\C)[C@@H](O)[C@@H](OC)C(=O)[C@H](C)C[C@H](C)/C=C/C=C/C=C/1C [Temsirolimus (Torisel)] | – | – | – | – | – | – | – | – | – | – | – | – | – | – | – | – | 83.5 | 79.5 | 69.5 | 60.0 | Cell viability in kinase inhibitor library screening, 501Mel XP, 1μΜ ([2]; 1μΜ, 72 h): 55.1; Cell viability in kinase inhibitor library screening, 501Mel XP, 10μΜ ([2]; 10μΜ, 72 h): 41.2; Cell viability in kinase inhibitor library screening, A375 Parental, 10μΜ (A375 cells (parental); 10μΜ): 73.5; Cell viability in kinase inhibitor library screening, A375 Parental, 1μΜ (A375 cells (parental); 1μΜ): 78.4; Cell viability in kinase inhibitor library screening, A375 GP, 1μΜ ([3]; 1μΜ): 81.2; Cell viability in kinase inhibitor library screening, A375 GP, 10μΜ ([3]; 10μΜ): 73.7; Cell viability in kinase inhibitor library screening, A375 XP, 1μΜ ([4]; 1μΜ): 81.1; Cell viability in kinase inhibitor library screening, A375 XP, 10μΜ ([4]; 10μΜ): 78.8; Cell viability in kinase inhibitor library screening, IGR37 Parental, 1μΜ (IGR37 cells (parental); 1μΜ): 79.0; Cell viability in kinase inhibitor library screening, IGR37 Parental, 10μΜ (IGR37 cells (parental); 10μΜ): 82.7; Cell viability in kinase inhibitor library screening, IGR37 GP, 10μΜ ([5]; 10μΜ): 41.7%; Cell viability in kinase inhibitor library screening, IGR37 GP, 1μΜ ([5]; 1μΜ): 91.9; Cell viability in kinase inhibitor library screening, IGR37 XP, 10μΜ ([6]; 10μΜ): 5.5%; Cell viability in kinase inhibitor library screening, IGR37 XP, 1μΜ ([6]; 1μΜ): 96.0
O=C(NCc1ccccc1)c1csc(Nc2ccncn2)n1 [Thiazovivin] | 107.2 | 76.8 | 104.3 | 43.8 | 28.9 | 103.7 | 81.8 | 96.7 | 87.9 | 107.7 | 97.5 | 89.5 | 92.4 | 93.5 | 98.5 | 87.0 | – | – | – | – | –
O=c1sn(-c2cccc3ccccc23)c(=O)n1Cc1ccccc1 [Tideglusib] | – | – | – | – | – | – | – | – | – | – | – | – | – | – | – | – | – | – | – | – | viability at 1 µM (501Mel cells (parental); Homo sapiens, 72 h, read-out: cell viability, 501Mel Parental, 1μΜ): 110%; viability at 10 µM (501Mel cells (parental); Homo sapiens, 72 h, read-out: cell viability, 501Mel Parental, 10μΜ): 105%; viability at 1 µM ([1]; Homo sapiens, 72 h, read-out: cell viability, 501Mel GP, 1μΜ): 102%; viability at 10 µM ([1]; Homo sapiens, 72 h, read-out: cell viability, 501Mel GP, 10μΜ): 91.6%; viability at 1 µM ([2]; Homo sapiens, 72 h, read-out: cell viability, 501Mel XP, 1μΜ): 98.8%; viability at 10 µM ([2]; Homo sapiens, 72 h, read-out: cell viability, 501Mel XP, 10μΜ): 90.4%; viability at 1 µM (A375 cells (parental); Homo sapiens, A-375, 72 h, read-out: cell viability, A375 Parental, 1μΜ): 95.4%; viability at 10 µM (A375 cells (parental); Homo sapiens, A-375, 72 h, read-out: cell viability, A375 Parental, 10μΜ): 97.4%; viability at 1 µM ([3]; Homo sapiens, A-375, 72 h, read-out: cell viability, A375 GP, 1μΜ): 98.4%; viability at 10 µM ([3]; Homo sapiens, A-375, 72 h, read-out: cell viability, A375 GP, 10μΜ): 97.5%; viability at 1 µM ([4]; Homo sapiens, A-375, 72 h, read-out: cell viability, A375 XP, 1μΜ): 105%; viability at 10 µM ([4]; Homo sapiens, A-375, 72 h, read-out: cell viability, A375 XP, 10μΜ): 108%; viability at 1 µM (IGR37 cells (parental); Homo sapiens, IGR-37, 72 h, read-out: cell viability, IGR37 Parental, 1μΜ): 103%; viability at 10 µM (IGR37 cells (parental); Homo sapiens, IGR-37, 72 h, read-out: cell viability, IGR37 Parental, 10μΜ): 99.7%; viability at 1 µM ([5]; Homo sapiens, IGR-37, 72 h, read-out: cell viability, IGR37 GP, 1μΜ): 94.6%; viability at 10 µM ([5]; Homo sapiens, IGR-37, 72 h, read-out: cell viability, IGR37 GP, 10μΜ): 95.9%; viability at 1 µM ([6]; Homo sapiens, IGR-37, 72 h, read-out: cell viability, IGR37 XP, 1μΜ): 96.4%; viability at 10 µM ([6]; Homo sapiens, IGR-37, 72 h, read-out: cell viability, IGR37 XP, 10μΜ): 74.1%
COc1ccc2cc(-c3nc(-c4ccc([S+](C)[O-])cc4)[nH]c3-c3ccncc3)ccc2c1 (stereo not shown) [Tie2 kinase inhibitor] | 96.1 | 90.5 | 107.0 | 87.5 | 64.5 | – | 96.4 | 96.7 | 82.6 | 97.1 | – | 103.5 | 94.1 | – | – | 62.0 | – | – | – | – | cell viability (kinase inhibitor library screening) ([2]; 1μΜ): 96.5
CCC(=O)N1CCN(c2ccc(-n3c(=O)ccc4cnc5ccc(-c6cnc7ccccc7c6)cc5c43)cc2C(F)(F)F)CC1 [Torin 1] | – | – | – | – | – | – | – | – | – | – | – | – | – | – | – | – | 15.1 | 3.3 | 20.9 | 10.6 | Cell viability in kinase inhibitor library screening, 501Mel XP, 1μΜ ([2]; 1μΜ, 72 h): 14.1; Cell viability in kinase inhibitor library screening, 501Mel XP, 10μΜ ([2]; 10μΜ, 72 h): 2.6; Cell viability in kinase inhibitor library screening, A375 Parental, 10μΜ (A375 cells (parental); 10μΜ): 7.2; Cell viability in kinase inhibitor library screening, A375 Parental, 1μΜ (A375 cells (parental); 1μΜ): 20.5; Cell viability in kinase inhibitor library screening, A375 GP, 1μΜ ([3]; 1μΜ): 22.1; Cell viability in kinase inhibitor library screening, A375 GP, 10μΜ ([3]; 10μΜ): 6.9; Cell viability in kinase inhibitor library screening, A375 XP, 1μΜ ([4]; 1μΜ): 20.4; Cell viability in kinase inhibitor library screening, A375 XP, 10μΜ ([4]; 10μΜ): 13.4; Cell viability in kinase inhibitor library screening, IGR37 Parental, 1μΜ (IGR37 cells (parental); 1μΜ): 23.8; Cell viability in kinase inhibitor library screening, IGR37 Parental, 10μΜ (IGR37 cells (parental); 10μΜ): 10.7; Cell viability in kinase inhibitor library screening, IGR37 GP, 10μΜ ([5]; 10μΜ): 12.5%; Cell viability in kinase inhibitor library screening, IGR37 GP, 1μΜ ([5]; 1μΜ): 40.0; Cell viability in kinase inhibitor library screening, IGR37 XP, 10μΜ ([6]; 10μΜ): 5.2%; Cell viability in kinase inhibitor library screening, IGR37 XP, 1μΜ ([6]; 1μΜ): 30.3
